Reference: ChEMBL document CHEMBL4229325, “Angiogenesis and cancer stem cells: New perspectives on therapy of ovarian cancer” (Eur J Med Chem, 2017)

Experiments:
[1] = Growth inhibition of human ovarian cancer stem cells at 0.5 uM in presence of 20 nM PTX; assay type: functional
[2] = Cytotoxicity against human A2780/DX cells assessed as cell viability at 8 uM incubated for 72 hrs by MTT assay; assay type: functional; settings: read-out: Activity
[3] = tested on: NCI/ADR-RES; assay: Cytotoxicity against human NCI-ADR-RES cells assessed as cell viability at 4 uM incubated for 72 hrs by MTT assay; assay type: functional; settings: read-out: Activity
[4] = tested on: NCI/ADR-RES; assay: Cytotoxicity against human NCI-ADR-RES cells assessed as cell viability at 8 uM incubated for 72 hrs by MTT assay; assay type: functional; settings: read-out: Activity
[5] = tested on: OVCAR-8; assay: Cytotoxicity against human OVCAR8 cells assessed as cell viability level at 4 uM incubated for 72 hrs by MTT assay; assay type: functional
[6] = tested on: 2008; assay: Cytotoxicity against human OV2008 cells assessed as reduction in cell viability incubated for 24 hrs by MTT assay; assay type: functional, cell-based; settings: Homo sapiens, 2008, 24 h
[7] = tested on: 2008; assay: Cytotoxicity against human OV2008 cells assessed as reduction in cell viability incubated for 48 hrs by MTT assay; assay type: functional, cell-based; settings: Homo sapiens, 2008, 48 h
[8] = tested on: C13; assay: Antitumor activity against human C13 cells xenografted in mouse assessed as tumor volume at 5 mg/kg, ip dosed every other day for 3 weeks and measured every two days (reference value: 252.5 +/- 63.4 mm3); assay type: functional
[9] = tested on: 2008; assay: Cytotoxicity against human OV2008 cells assessed as reduction in cell viability incubated for 72 hrs by MTT assay; assay type: functional, cell-based; settings: Homo sapiens, 2008, 72 h
[10] = tested on: OVCAR-8; assay: Cytotoxicity against human OVCAR8 cells assessed as cell viability level at 8 uM incubated for 72 hrs by MTT assay; assay type: functional
[11] = Growth inhibition of human ovarian epithelial cancer cells at 0.5 uM in presence of 20 nM PTX; assay type: functional
[12] = Cytotoxicity against human A2780/DX cells assessed as cell viability at 4 uM incubated for 72 hrs by MTT assay; assay type: functional; settings: read-out: Activity
[13] = Cytotoxicity against human A2780cis cells assessed as cell viability at 8 uM incubated for 72 hrs by MTT assay; assay type: functional; settings: read-out: Activity

**Q.** With `CC[C@@H](C(=O)[C@@H](C)[C@@H](O)[C@H](C)[C@@H]1O[C@@H]([C@@H](CC)C(=O)O)CC[C@@H]1C)[C@H]1O[C@]2(C=C[C@@H](O)[C@]3(CC[C@@](C)([C@H]4CC[C@](O)(CC)[C@H](C)O4)O3)O2)[C@H](C)C[C@@H]1C` [SALINOMYCIN] as the molecule, how does the “growth inhibition (GI)” value [1] read?
**A.** Its value is 59%.

**Q.** And the viability at 8 µM [2]?
**A.** Its viability at 8 µM is 43%.

**Q.** What about the viability at 4 µM [3] of the same molecule?
**A.** Its viability at 4 µM is 50%.

**Q.** What about the viability at 8 µM [4] of the same molecule?
**A.** Its viability at 8 µM is 37%.

**Q.** And the Activity [5]?
**A.** Its Activity is 53%.

**Q.** And the IC50 [6]?
**A.** Its IC50 is 7.44 µM.

**Q.** And the IC50 [7]?
**A.** The IC50 was 4.78 µM.

**Q.** And the Activity [8]?
**A.** Its Activity is 84.2 mm3.

**Q.** And the IC50 [9]?
**A.** Its IC50 is 3.2 µM.

**Q.** What about the Activity [10] of the same molecule?
**A.** The Activity was 45%.

**Q.** What about the “growth inhibition (GI)” value [11] of the same molecule?
**A.** The value was 58%.

**Q.** And the viability at 4 µM [12]?
**A.** Its viability at 4 µM is 50%.

**Q.** What about the viability at 8 µM [13] of the same molecule?
**A.** The viability at 8 µM was 55%.
